These results are taken from patent US20150105252A1, “SUBSTITUTED PYRAZOLES AS HERBICIDES” (E I DU PONT DE NEMOURS AND COMPANY, priority 2013, published 2015).

One assay relates to Surinam grass. The experiment in a line: Test E preemergence. Conditions: 21 days, scale 0 to 100. It is filed as in vivo, Brachiaria decumbens. The text has this:
(§1) Seeds of plant species selected from bermudagrass (Cynodon dactylon), Surinam grass (Brachiaria decumbens), crabgrass, large (large crabgrass, Digitaria sanguinalis), crabgrass, naked (naked crabgrass, Digitaria nuda), foxtail, green (green foxtail, Setaria viridis), johnsongrass (Sorghum halepense), kochia (Kochia scoparia), morningglory (pitted morningglory, Ipomoea lacunosa), nutsedge, purple (purple nutsedge, Cyperus rotundus), ragweed (common ragweed, Ambrosia elation), mustard, black (black mustard, Brassica nigra), guineagrass (Panicum maximum), dallisgrass (Paspalum dilatatum), barnyardgrass (Echinochloa crus-galli), sandbur (southern sandbur, Cenchrus echinatus), sowthistle (common sowthistle, Sonchus oleraceous), ryegrass, Italian (Italian ryegrass, Lolium multiflorum), signalgrass (broadleaf signalgrass, Brachiaria platyphylla), dayflower, VA (Virginia (VA) dayflower, Commelina virginica), bluegrass (annual bluegrass, Poa annua), quackgrass (Elytrigia repens), mallow (common mallow, Malva sylvestris), buckwheat, wild (wild buckwheat, Polygonum convolvulus), leafy spurge (Euphorbia esula), common chickweed (Stellaria media), wild poinsettia (Euphorbia heterophylla), pigweed, palmer (palmer pigweed, Amaranthus palmeri), and pigweed (redroot pigweed, Amaranthus retroflexus) were planted into a blend of loam soil and sand and treated preemergence with test chemicals formulated in a non-phytotoxic solvent mixture which included a surfactant.
(§2) Treated plants and controls were maintained in a greenhouse for 21 days, after which time all species were compared to controls and visually evaluated. Plant response ratings, summarized in Table E, are based on a scale of 0 to 100 where 0 is no effect and 100 is complete control. A dash (-) response means no test result.

For the next assay, the system named is pigweed. The experiment in a line: Test E preemergence. Format: in vivo, Amaranthus retroflexus. Particulars: 21 days, scale 0 to 100.
Description: as §1, §2

Another assay deals with barnyardgrass. The assay can be described thus: Test C flooded paddy test. It is filed as in vivo, Echinochloa crus-galli. Particulars: Flood. The method in brief: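 Flooded 3 cm over soil; compound into paddy water; depth kept constant. Greenhouse 13–15 d.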
Setting [1] is: 31 g ai/ha, scale 0 to 100 (0 no effect, 100 complete control).
The mark [2] stands for this setting: 62 g ai/ha, scale 0 to 100 (0 no effect, 100 complete control).
Setting [3] is: 125 g ai/ha, scale 0 to 100 (0 no effect, 100 complete control).

Consider `CCc1cc(C(=O)NC(C)C)nn1Cc1ccnc(C(F)(F)F)c1` [Compound 103], for which the “Plant response rating, Surinam Grass” value in the assay with Surinam grass (16 g ai/ha) is 95; in the assay with Surinam grass (31 g ai/ha), 100; in the assay on Surinam grass (62 g ai/ha), 100; in the assay with Surinam grass (125 g ai/ha), 100; in the assay on Surinam grass (250 g ai/ha), 100. Also, the “Plant response rating, Pigweed” value in the assay on pigweed (16 g ai/ha), in the assay with pigweed (31 g ai/ha), with pigweed (62 g ai/ha), in the assay with pigweed (125 g ai/ha) and in the assay with pigweed (250 g ai/ha) was 100 each time.

Consider `CCCNC(=O)c1cc(CCCl)n(Cc2ccnc(C(F)(F)F)c2)n1` [Compound 145], for which the “Plant response rating, Barnyardgrass” value in the assay with barnyardgrass (setting [1]) came out at 0; in the assay with barnyardgrass (setting [2]) it was 0; with barnyardgrass (125 g ai/ha, scale 0 to 100) it was 30; with barnyardgrass (250 g ai/ha, scale 0 to 100), 40.

For the compound `CCONC(=O)c1cc(OCC)n(Cc2ccnc(C(F)(F)F)c2)n1` [Compound 195], the “Plant response rating, Barnyardgrass” value is given as 0 in the assay on barnyardgrass (setting [1]); 30 in the assay on barnyardgrass (setting [2]); 40 in the assay on barnyardgrass (setting [3]); 45 in the assay with barnyardgrass (250 g ai/ha, scale 0 to 100).

On to `CCc1cc(C(=O)NC2CC2)nn1Cc1ccnc(OCC(F)(F)F)c1` [Compound 200], for which the “Plant response rating, Barnyardgrass” value in the assay with barnyardgrass (setting [1]) is on record as 0; in the assay with barnyardgrass (setting [2]), 0; with barnyardgrass (setting [3]), 20; in the assay with barnyardgrass (250 g ai/ha, scale 0 to 100) it was 40.

Regarding `CCc1cc(C(=O)NC2CC2)nn1Cc1cc(C(F)(F)C(F)(F)F)nn1C` [Compound 226], the “Plant response rating, Barnyardgrass” value in the assay on barnyardgrass (setting [1]), in the assay on barnyardgrass (setting [2]) and in the assay on barnyardgrass (setting [3]) was 0 throughout.
